Legend:
Test in all cases: relative viability (nuclei count vs DMSO), 5 days (fraction); higher = more cells survive
[1] = compound: O=C(Nc1cc(C(F)(F)F)cc(C(F)(F)F)c1)c1cc(Cl)ccc1O [IMD-0354] + C[C@]1(O)C[C@@H](c2nc(-c3ccc4ccc(-c5ccccc5)nc4c3)c3c(N)nccn32)C1 [Linsitinib] (partner 1 µM)
Procedure, shortened: (§1)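 Relative viability is defined as nuclei in treated wells over nuclei in vehicle wells. Duplicate plates were run and medians reported. Lung cancer cell lines in 1536-well plates were dosed by pin tool one day after seeding, with one drug or with a fixed anchor-drug dose plus five library-drug doses (not always all listed) in √10 steps, and nuclei were counted after 5 days.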

[2] = compound: Cc1cnc(CNC(=O)c2c(=O)c3ccc(N4CCCN(C)CC4)nc3n3c2sc2ccccc23)cn1 [CX-5461] + CC(=O)c1c(C)c2cnc(Nc3ccc(N4CCNCC4)cn3)nc2n(C2CCCC2)c1=O [Palbociclib] (partner 0.5 µM)
Procedure, shortened: as §1

[3] = compound: O=C(Nc1cc(C(F)(F)F)cc(C(F)(F)F)c1)c1cc(Cl)ccc1O [IMD-0354] + C[C@@H](Oc1cc(-c2cnn(C3CCNCC3)c2)cnc1N)c1c(Cl)ccc(F)c1Cl [Crizotinib] (partner 1 µM)
Procedure, shortened: as §1

[4] = compound: Cc1cnc(CNC(=O)c2c(=O)c3ccc(N4CCCN(C)CC4)nc3n3c2sc2ccccc23)cn1 [CX-5461] + CC1(C)CCC(c2ccc(Cl)cc2)=C(CN2CCN(c3ccc(C(=O)NS(=O)(=O)c4ccc(N[C@H](CCN5CCOCC5)CSc5ccccc5)c(S(=O)(=O)C(F)(F)F)c4)cc3)CC2)C1 [Navitoclax] (partner 0.5 µM)
Procedure, shortened: as §1

Cell Line	relative viability ([1]; first compound 0.04 µM)	relative viability ([1]; first compound 0.1265 µM)	relative viability ([1]; first compound 0.4 µM)	relative viability ([1]; first compound 1.265 µM)	relative viability ([1]; first compound 4 µM)	relative viability ([2]; first compound 0.01 µM)	relative viability ([2]; first compound 0.03162 µM)	relative viability ([2]; first compound 0.1 µM)	relative viability ([2]; first compound 0.3162 µM)	relative viability ([2]; first compound 1 µM)	relative viability ([3]; first compound 0.04 µM)	relative viability ([3]; first compound 0.1265 µM)	relative viability ([3]; first compound 0.4 µM)	relative viability ([3]; first compound 1.265 µM)	relative viability ([3]; first compound 4 µM)	relative viability ([4]; first compound 0.01 µM)	relative viability ([4]; first compound 0.03162 µM)	relative viability ([4]; first compound 0.1 µM)	relative viability ([4]; first compound 0.3162 µM)	relative viability ([4]; first compound 1 µM)
201T	1.13	1.01	1.02	1.06	0.385	0.35	0.344	0.363	0.355	0.35	1.09	1.02	0.815	1	0.389	1.18	1.22	1.21	1.18	1.19
A549	0.782	0.581	0.264	0.439	0.0949	–	–	–	–	–	0.834	0.764	0.265	0.0905	0.121	1.05	0.932	–	0.833	0.035
A-427	1.21	1.1	0.986	0.719	0.115	0.526	0.533	0.491	0.329	0.425	0.877	0.793	0.519	0.185	0.139	1.05	1.06	0.961	–	0.979
ABC-1	0.858	0.826	0.57	0.335	0.28	0.675	–	0.879	0.367	0.918	1.42	1.22	0.765	0.221	0.269	–	–	–	–	–
BEN	0.929	0.771	0.537	0.435	0.256	0.497	0.441	0.433	0.5	0.437	0.856	0.8	0.463	0.366	0.299	0.0792	0.0627	0.052	0.0668	0.066
CAL-12T	0.771	0.754	0.895	0.152	0.164	0.49	0.511	0.448	0.347	0.121	0.855	0.472	0.395	0.16	0.214	1.18	1.25	–	1.05	0.573
COR-L23	0.764	0.73	0.388	0.116	0.158	0.27	0.269	0.233	0.234	0.125	0.616	0.532	0.302	0.193	0.131	0.966	0.981	0.786	0.978	0.417
COR-L 105	1.05	0.682	0.638	0.613	0.265	0.414	0.403	0.393	0.319	0.357	0.856	0.906	0.538	0.55	0.261	0.891	0.734	0.768	0.801	0.689
Calu-6	0.92	0.859	0.862	0.0995	0.0777	–	–	–	–	–	0.842	0.689	0.506	0.276	0.164	0.659	0.872	0.743	0.852	0.157
ChaGo-K-1	–	–	–	–	–	0.965	0.95	0.927	0.933	0.899	1.16	1.26	0.788	0.398	0.433	1.32	0.947	0.752	0.413	0.618
EBC-1	0.845	0.703	0.741	0.113	0.164	–	–	–	–	–	0.19	0.204	0.208	0.209	0.177	0.391	0.374	0.437	0.416	0.197
EKVX	1.1	0.961	–	0.743	0.232	0.399	0.396	0.406	–	0.298	1.01	0.993	–	1.07	0.246	1.13	1.03	0.958	–	0.764
EMC-BAC-2	0.909	0.825	0.549	0.801	0.207	0.515	0.515	0.468	0.433	0.412	0.869	0.677	0.586	0.415	0.27	1.17	1.29	1.21	1.13	1.14
EPLC-272H	1.3	1.09	0.626	0.945	0.31	0.309	0.322	0.324	–	0.352	1.04	0.787	0.67	0.822	0.225	1.28	1.3	1.11	–	1.13
H3255	0.931	0.916	0.509	0.314	0.237	0.282	0.353	0.299	0.305	0.302	0.781	0.885	0.555	0.338	0.285	0.626	0.484	0.533	0.273	0.397
HARA	1.08	0.867	0.577	0.119	0.136	0.24	0.227	0.331	0.228	0.253	1.05	0.921	0.53	0.158	0.208	1.11	1.23	1.17	1.08	1.12
HCC-15	0.801	0.812	0.489	0.376	0.141	0.705	0.759	0.808	0.725	0.592	0.872	0.83	0.486	0.274	0.119	0.725	0.773	0.713	0.717	0.656
HCC-44	0.68	0.573	0.394	0.297	0.128	0.906	1.05	0.969	0.926	0.953	0.893	0.785	0.361	0.169	0.169	0.931	1.08	1.09	0.983	1.02
HCC-78	0.471	0.495	0.421	0.486	0.276	0.503	0.453	0.444	0.508	0.429	0.317	0.323	0.251	0.37	0.189	0.984	0.839	0.724	0.543	0.769
HCC-366	0.947	0.85	0.221	0.365	0.0421	0.451	0.546	0.355	0.308	0.287	0.586	0.858	0.225	0.105	0.0509	1.04	1.06	1.16	1.1	1.11

Cell Line	relative viability ([1]; first compound 0.04 µM)	relative viability ([1]; first compound 0.1265 µM)	relative viability ([1]; first compound 0.4 µM)	relative viability ([1]; first compound 1.265 µM)	relative viability ([1]; first compound 4 µM)	relative viability ([2]; first compound 0.01 µM)	relative viability ([2]; first compound 0.03162 µM)	relative viability ([2]; first compound 0.1 µM)	relative viability ([2]; first compound 0.3162 µM)	relative viability ([2]; first compound 1 µM)	relative viability ([3]; first compound 0.04 µM)	relative viability ([3]; first compound 0.1265 µM)	relative viability ([3]; first compound 0.4 µM)	relative viability ([3]; first compound 1.265 µM)	relative viability ([3]; first compound 4 µM)	relative viability ([4]; first compound 0.01 µM)	relative viability ([4]; first compound 0.03162 µM)	relative viability ([4]; first compound 0.1 µM)	relative viability ([4]; first compound 0.3162 µM)	relative viability ([4]; first compound 1 µM)
HCC-827	0.898	0.947	0.82	0.606	0.282	0.452	0.529	0.538	0.437	0.582	1	0.881	0.736	0.498	0.263	1.07	1.01	1.02	1.02	0.975
HOP-62	1.02	0.898	0.48	0.93	0.206	0.415	0.446	0.461	0.413	0.415	0.999	1.09	0.926	0.546	0.168	0.908	1.16	1.21	–	1.02
IA-LM	0.653	0.486	0.745	0.0945	0.16	–	–	–	–	–	0.948	0.974	0.51	0.0996	0.142	0.941	0.993	0.724	0.769	0.272
LC-2-ad	1.02	0.844	0.369	0.108	0.123	0.474	0.552	0.42	0.469	0.47	0.431	0.466	0.37	0.358	0.239	0.449	0.533	0.434	0.553	0.362
LCLC-103H	1.11	1.07	0.844	0.821	0.425	0.496	0.493	0.458	0.466	0.464	1.02	1.18	0.734	0.703	0.352	–	–	–	–	–
NCI-H358	0.993	0.773	0.385	0.23	0.221	0.135	0.124	0.135	0.0878	0.084	0.6	0.611	0.228	0.232	0.348	–	–	–	–	–
NCI-H522	–	–	–	–	–	1.04	0.957	1.18	–	0.993	–	–	–	–	–	–	–	–	–	–
NCI-H596	0.973	1.05	0.839	1.21	0.682	–	–	–	–	–	0.928	1.04	0.858	0.955	0.451	0.928	1.01	1.18	0.98	1.02
NCI-H650	1.01	0.911	0.505	0.249	0.223	0.319	0.362	0.334	0.336	0.323	0.844	0.714	0.542	0.528	0.2	–	–	–	–	–
NCI-H661	0.65	0.632	0.57	0.532	0.251	0.418	0.374	0.368	0.367	0.337	1.07	1.2	0.869	0.524	0.317	–	–	–	–	–
NCI-H1299	0.933	0.895	0.839	0.168	0.158	–	–	–	–	–	0.943	1	0.518	0.294	0.166	1.1	1.06	1.04	1.04	1.05
NCI-H1395	1.02	1.28	0.99	0.395	0.42	0.624	0.599	0.586	0.572	0.498	–	–	–	–	–	1.17	0.993	1.16	0.964	0.63
NCI-H1563	1.25	1.06	1.11	0.784	0.457	–	–	–	–	–	0.904	0.774	0.822	0.484	0.44	–	–	–	–	–
NCI-H1648	–	–	–	–	–	0.32	0.267	0.254	0.274	0.284	–	–	–	–	–	–	–	–	–	–
NCI-H1650	–	–	–	–	–	0.374	0.364	0.35	0.289	0.151	0.921	0.793	0.578	0.19	0.205	1.29	1.02	–	1.23	0.2
NCI-H1703	1.38	0.583	0.888	0.125	0.141	–	–	–	–	–	0.9	0.626	0.494	0.254	0.215	1.22	1.28	0.932	1.13	0.313
NCI-H1793	1.15	0.802	0.349	0.298	0.224	0.307	0.306	0.345	0.32	0.283	–	–	–	–	–	0.485	0.306	0.37	0.485	0.443
NCI-H2170	–	–	–	–	–	0.412	0.361	0.414	0.406	0.422	1.3	1.39	0.574	1.2	0.33	0.627	0.585	0.698	0.532	0.665
NCI-H2342	–	–	–	–	–	0.513	0.505	0.486	0.531	0.522	–	–	–	–	–	–	–	–	–	–
SW 900	–	–	–	–	–	0.533	0.538	–	0.621	0.519	–	–	–	–	–	–	–	–	–	–

Reference: the supplement of paper PMC10307832
